# Test results reported in ChEMBL document CHEMBL1201862, “PubChem BioAssay data set” (2004).
#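 Where inhibition never reached the appropriate level, the endpoint shown equals the highest concentration tested. Otherwise, values were interpolated linearly from a five-concentration, 48-hour dose response in 96-well plates. Abbreviation: GI50, concentration required for 50% inhibition of growth.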 Active and inactive are the calls of the source. No stated cut-off is given here; in the data, active = GI50 up to about 1.1 µM and inactive = higher. Square brackets hold non-standard residues; d marks the D form. Peptide text beside a SMILES is read from it. Ac5c = NC1(C(=O)O)CCCC1
# Experiments:
# Assay in all cases: DTP human tumour cell line panel, 48 h
# NCI-H226 = test system: NCI-H226
# RXF 393 = test system: RXF 393
# A549 = test system: A549
# MDA-MB-231 = test system: MDA-MB-231
# HCT-15 = test system: HCT-15
# SK-OV-3 = test system: SK-OV-3
# SF-268 = test system: SF-268
# SW-620 = test system: SW-620
# OVCAR-3 = test system: OVCAR-3
# LOX IMVI = test system: LOX IMVI
# ACHN = test system: ACHN
# SK-MEL-2 = test system: SK-MEL-2
# Hs-578T = test system: Hs-578T
Structure (SMILES),GI50 (NCI-H226),GI50 (RXF 393),GI50 (A549),GI50 (MDA-MB-231),GI50 (HCT-15) [µM],GI50 (SK-OV-3),GI50 (SF-268),GI50 (SW-620),GI50 (OVCAR-3),GI50 (LOX IMVI),GI50 (ACHN),GI50 (SK-MEL-2),GI50 (Hs-578T)
NC(=O)C(c1ccccc1)N1OC2C(=O)N(c3cccc4ccccc34)C(=O)C2C1c1c2ccccc2c(Cl)c2ccccc12 (stereo not drawn),6.25 µM (inactive),6.81 µM (inactive),13.9 µM (inactive),9.25 µM (inactive),4.21,19 µM (inactive),9.1 µM (inactive),3.15 µM (inactive),7.91 µM (inactive),6.1 µM (inactive),8.91 µM (inactive),8.69 µM (inactive),18.6 µM (inactive)
O=C(NCCN(CCNC(=O)c1cccc(O)c1O)CCNC(=O)c1cccc(O)c1O)c1cccc(O)c1O [TRENCAM],14.8 µM (inactive),7.87 µM (inactive),15 µM (inactive),6.07 µM (inactive),10.4,16.7 µM (inactive),2.06 µM (inactive),2.4 µM (inactive),2.69 µM (inactive),1.22 µM (inactive),4.2 µM (inactive),33.2 µM (inactive),29.7 µM (inactive)
CCc1nnc(CC)n1-n1c(Cc2ccccc2)n[nH]c1=O,–,> 100 µM (inactive),> 100 µM (inactive),> 100 µM (inactive),> 100,> 100 µM (inactive),> 100 µM (inactive),> 100 µM (inactive),> 100 µM (inactive),> 100 µM (inactive),> 100 µM (inactive),> 100 µM (inactive),–
CNC(=O)c1nnn(Cc2ccccc2)c1S,> 100 µM (inactive),> 100 µM (inactive),> 100 µM (inactive),> 100 µM (inactive),> 100,> 100 µM (inactive),–,> 100 µM (inactive),> 100 µM (inactive),–,> 100 µM (inactive),> 100 µM (inactive),–
CN(C)C(=O)OC(Cn1cncn1)(Cn1cncn1)c1ccc(Cl)cc1Cl,> 100 µM (inactive),> 100 µM (inactive),> 100 µM (inactive),> 100 µM (inactive),> 100,> 100 µM (inactive),> 100 µM (inactive),> 100 µM (inactive),> 100 µM (inactive),> 100 µM (inactive),–,71.8 µM (inactive),> 100 µM (inactive)
COc1ccc(C23OCC(Cc4cc(OC)c(OC)cc42)C3CO)cc1OC (stereo not drawn),> 100 µM (inactive),> 100 µM (inactive),> 100 µM (inactive),> 100 µM (inactive),> 100,> 100 µM (inactive),–,> 100 µM (inactive),> 100 µM (inactive),> 100 µM (inactive),> 100 µM (inactive),> 100 µM (inactive),–
CCCC1NC(=O)C(CC(C)C)NC(=O)c2cccc(n2)C(=O)NC(CC(C)C)C(=O)NC(CCC)C(=O)NC(C(=O)OC)CCCCNC1=O (stereo not drawn),25.6 µM (inactive),31.8 µM (inactive),> 100 µM (inactive),18.7 µM (inactive),> 100,27.2 µM (inactive),28.2 µM (inactive),34.8 µM (inactive),41.7 µM (inactive),19.2 µM (inactive),–,55 µM (inactive),71.1 µM (inactive)
C(=N\c1ccc(-c2nc3ccccc3[nH]2)cc1)/c1ccc[nH]1,–,76.2 µM (inactive),> 100 µM (inactive),–,76.6,–,30.3 µM (inactive),73.3 µM (inactive),69 µM (inactive),76.6 µM (inactive),> 100 µM (inactive),> 100 µM (inactive),4.3 µM (inactive)
COc1cccc(C=C2N=C(C)N(n3c(-c4ccccc4)nc4ccccc4c3=O)C2=O)c1,> 100 µM (inactive),–,> 100 µM (inactive),> 100 µM (inactive),77.1,> 100 µM (inactive),> 100 µM (inactive),> 100 µM (inactive),–,> 100 µM (inactive),> 100 µM (inactive),–,> 100 µM (inactive)
Cc1cn(CC2=NCC(C)(C)N2)c(=O)[nH]c1=O,> 100 µM (inactive),> 100 µM (inactive),> 100 µM (inactive),> 100 µM (inactive),> 100,> 100 µM (inactive),> 100 µM (inactive),> 100 µM (inactive),–,> 100 µM (inactive),> 100 µM (inactive),> 100 µM (inactive),> 100 µM (inactive)
CC(C)=CCc1cc2c(cc1O)OC[C@H]1c3cc4c(cc3O[C@@H]21)OCO4,23.8 µM (inactive),21.4 µM (inactive),80.4 µM (inactive),40.3 µM (inactive),35.8,> 100 µM (inactive),56.6 µM (inactive),36.5 µM (inactive),37.2 µM (inactive),17.3 µM (inactive),42.4 µM (inactive),–,18.2 µM (inactive)
CC(C)(C)CC(C)(C)c1cc(O)c(O)c(CN2CCCCC2)c1,16.7 µM (inactive),12.8 µM (inactive),17.1 µM (inactive),17.7 µM (inactive),4.01,19.8 µM (inactive),12.6 µM (inactive),13.2 µM (inactive),14.7 µM (inactive),12 µM (inactive),12.9 µM (inactive),–,15.6 µM (inactive)
O=C(Cn1c(=O)oc2ccc(C(=O)c3ccc(F)cc3)cc21)c1ccc([N+](=O)[O-])cc1,27.3 µM (inactive),27.3 µM (inactive),37.1 µM (inactive),28.9 µM (inactive),20.9,69.8 µM (inactive),45 µM (inactive),36.7 µM (inactive),–,34.8 µM (inactive),35 µM (inactive),20.2 µM (inactive),20.4 µM (inactive)
COc1cc2c(c(OC)c1)/C(=C/Sc1ccccc1)C(=O)N(C(C)(C)C)C2,51.6 µM (inactive),–,–,23.4 µM (inactive),30.3,14.2 µM (inactive),14.1 µM (inactive),38 µM (inactive),22.5 µM (inactive),18.8 µM (inactive),35.3 µM (inactive),20.2 µM (inactive),–
O=C1Oc2cc(O)cc(/C=C/c3ccc(O)cc3)c2[C@@]12c1c(O)cc(O)cc1OC2c1cccc(O)c1 (stereo partly drawn),11.1 µM (inactive),34.6 µM (inactive),54 µM (inactive),26.4 µM (inactive),83.4,30.8 µM (inactive),36.6 µM (inactive),–,61.2 µM (inactive),23.3 µM (inactive),52.5 µM (inactive),24.2 µM (inactive),20.5 µM (inactive)
NCC(=O)NC1(C(=O)O)CCCC1 (H-Gly-[Ac5c]-OH),–,> 100 µM (inactive),> 100 µM (inactive),> 100 µM (inactive),> 100,> 100 µM (inactive),> 100 µM (inactive),> 100 µM (inactive),> 100 µM (inactive),> 100 µM (inactive),> 100 µM (inactive),> 100 µM (inactive),> 100 µM (inactive)
CCOC(=O)c1c(-c2ccc(OC)cc2)c(C#N)c(=S)n(C2OC(CO)C(O)C(O)C2O)c1-c1ccccc1 (stereo not drawn),–,26.2 µM (inactive),> 100 µM (inactive),36 µM (inactive),56,90.6 µM (inactive),68.7 µM (inactive),36.1 µM (inactive),24.6 µM (inactive),41.9 µM (inactive),54.7 µM (inactive),31.3 µM (inactive),25.2 µM (inactive)
COC(=O)C1(O)C(c2ccccc2)=NC2(C)CCCC21 (stereo not drawn),> 100 µM (inactive),> 100 µM (inactive),> 100 µM (inactive),> 100 µM (inactive),> 100,> 100 µM (inactive),> 100 µM (inactive),> 100 µM (inactive),> 100 µM (inactive),> 100 µM (inactive),–,> 100 µM (inactive),> 100 µM (inactive)
CCOC(=O)NNC(=O)NCc1ccccc1CNC(=O)NNC(=O)OCC,> 100 µM (inactive),> 100 µM (inactive),> 100 µM (inactive),> 100 µM (inactive),> 100,> 100 µM (inactive),> 100 µM (inactive),> 100 µM (inactive),> 100 µM (inactive),> 100 µM (inactive),–,> 100 µM (inactive),> 100 µM (inactive)
COC(=O)[C@@H](OC(C)=O)[C@@H](OC(C)=O)c1nnc2ccc(Cl)nn12,–,> 100 µM (inactive),> 100 µM (inactive),> 100 µM (inactive),> 100,> 100 µM (inactive),> 100 µM (inactive),> 100 µM (inactive),> 100 µM (inactive),> 100 µM (inactive),> 100 µM (inactive),> 100 µM (inactive),> 100 µM (inactive)
O=C1/C(=C/c2cccc(Oc3ccccc3)c2)N=C(c2ccccc2)N1c1nc2ccc(Sc3ccccc3)cc2[nH]1,–,24.8 µM (inactive),42.1 µM (inactive),19.8 µM (inactive),28,25.6 µM (inactive),37.7 µM (inactive),29.4 µM (inactive),15.8 µM (inactive),30.9 µM (inactive),54.3 µM (inactive),17.3 µM (inactive),41.3 µM (inactive)
C=CCN(C(=O)OC(C)(C)C)[C@H](C)C(=O)N[C@@H](C)C(=O)OC,> 100 µM (inactive),–,> 100 µM (inactive),> 100 µM (inactive),> 100,> 100 µM (inactive),> 100 µM (inactive),> 100 µM (inactive),> 100 µM (inactive),> 100 µM (inactive),> 100 µM (inactive),> 100 µM (inactive),> 100 µM (inactive)
COC(CN(C(=O)c1ccccc1)C1CCC2(SCCS2)c2[nH]c3ccccc3c21)OC (stereo not drawn),83.8 µM (inactive),20.3 µM (inactive),30.7 µM (inactive),28.9 µM (inactive),30.6,–,> 100 µM (inactive),33.3 µM (inactive),25.8 µM (inactive),2.18 µM (inactive),27.8 µM (inactive),32.6 µM (inactive),75.2 µM (inactive)
